The values below come from patent US20240376097A1, “BCL-2 Inhibitor” (BeiGene Ltd., priority 2020, published 2024).

Experiment [1] relates to recombinant human Bcl-2-G101V protein. Description: Bcl-2-G101V TR-FRET Assay. The class given is binding. The note with it: ratio of biochemical IC50 Bcl-2 G101V / Bcl-2 WT. Put shortly:
(§1)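 TR-FRET read at excitation 337 nm with emission at 490 nm and 520 nm. Inhibition of Bcl-2-G101V binding to its ligand across increasing compound concentrations was calculated from the 490/520 nm fluorescence ratio, and IC50 values came from four-parameter logistic fits.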
A general note: Time-resolved FRET reads energy transfer from a long-lived donor to a nearby acceptor.

The test system of experiment [2] is RS4;11 (BCL-2 dependent acute lymphoblastic leukemia cell line). Description: RS4;11 Cell Proliferation Assay. The conditions noted are these: read-out: Cellular proliferation assay (IC50, nM) RS4. It counts as cell-based. On the procedure:
Biological Example: RS4;11 Cell Proliferation Assay
(§2) The BCL-2 dependent acute lymphoblastic leukemia (ALL) cell line, RS4;11, was used to study the cellular potency of BCL-2 inhibitors. The cells (ATCC, CRL-1873) were cultured in RPMI-1640 complete medium (RPMI-1640 medium, HEPES (Gibco, 22400-105) supplemented with 10% fetal bovine serum (FBS) (Gibco, 10099-1441), 100 unit/ml penicillin and 100 μg/ml streptomycin (Gibco, 15140122)) and maintained in a humidified chamber at 37° C. containing 5% CO2. Each compound was serially diluted with 1 μM as the maximum concentration. To test the apoptotic effect of the compounds, the cells were seeded at 50,000 in 180 μl per well in 96-well plates and treated with 10-point dilution series of each compound for 48 hrs at 37° C. Cell viability was assessed after the treatment using CellTiter-GLO luminescent assay (Promega) according to the manufacturer's recommendations. Briefly, 30 μl of CellTiter-GLO reagent was added into 200 μl of cell culture. Mixture was agitated on an orbital shaker for 5 min to ensure cell lysis followed by 7 min incubation at room temperature to allow development and stabilization of luminescent signals, which corresponded to the quantity of ATP and thus the quantity of metabolically active cells. Luminescent signals were measured using PHERAstar FS reader (BMG). Mean IC50 values were determined with GraphPad Prism software.

Experiment [3] deals with BCL-2 G101V knock-in cell line H96 (derive from RS4;11). Description: Bcl 2-G101V Knock-In RS4;11 Cell Proliferation Assay. It counts as cell-based. The conditions noted are these: RS4;11 Bcl-2 G101V knock-in clone H96, 48 hrs, CellTiter-GLO, read-out: Cellular proliferation assay (IC50, nM) RS4. How it is done:
Biological Example: Bcl 2-G101V Knock-In RS4;11 Cell Proliferation Assay
(1) RS4;11 H96 Bcl 2-G101V Knock-In Cell Line Generation
Briefly, RS4;11 BCL2-G101V knock-in cell pool was generated using Crisper/Cas9 gene editing system and the BCL2-G101V knock-in single clone H96 was picked from the knock-in cell pool and validated by WES (whole exome-sequencing) and RNA-seq.
The BCL-2 dependent acute lymphoblastic leukemia (ALL) cell line, RS4;11(ATCC, CRL-1873), was cultured in RPMI-1640 complete medium (RPMI-1640 medium, HEPES (Gibco, 22400-105) supplemented with 10% fetal bovine serum (FBS) (Gibco, 10099-1441), 100 unit/ml penicillin and 100 μg/ml streptomycin (Gibco, 15140122)) and maintained in a humidified chamber at 37° C. containing 5% CO2.
To obtain BCL2-G101V knock-in cell pool, RS4;11 was co-transfected with the Cas9-gRNA which also expressed GFP label, and the Donor gene which contained the BCL2-G101V mutant sequence. After 48 hrs of electroporation, the GFP positive cells were collected through FACSAriaIII cell sorting system. Cell pool was recovered for 3 days and then cultured under 2 nM ABT-199 stress for 4 weeks. […] Then cells were plated in 96 well U-plate with 1 cell/well for 10000 wells for single clone selection. After 3-5 weeks growing, clones were successively screened by PCR sequencing. And three BCL2-G101V knock-in clones: H96, H142 and H233, have been picked out.
Three clones were validated by genome DNA and cDNA(mRNA) PCR sequencing, and BCL-2, BCL-xL and MCL-1 expression using Western Blot. The H96 clone was also validated by WES (whole exome-sequencing) and RNA-seq.
(2) Bcl 2-G101V Knock-In RS4;11 Cell Proliferation Assay
as §2, with “G101V knock-in” for “dependent acute lymphoblastic leukemia (ALL)”, “line H96 (derive from RS4;11) were” for “line, RS4;11, was”, “cells” for “cells (ATCC, CRL-1873)”, “μM or 10 μM” for “μM”, “90” for “180”, “100” for “200”
In general terms: In ATP-based viability assays light output follows the ATP content of the culture.

Experiment [4] has as its target recombinant human Bcl-2 D103Y protein (Homo sapiens (Human), UniProt P10415, D103Y). Description: Bcl-2-D103Y Biochemical Assay (TR-FRET). It counts as binding. An outline of the steps: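 Recombinant human Bcl-2 D103Y binding to its ligand measured by TR-FRET (ex 337 nm, em 490/520 nm) with increasing compound concentrations. Percent inhibition from the 490/520 nm ratio; IC50 from four-parameter logistic fit.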

Experiment [5] deals with Recombinant human Bcl-2 protein (Homo sapiens (Human), UniProt P10415). In words: Bcl-2 TR-FRET Assay. The class given is binding. Put shortly: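 0.05 nM recombinant Bcl-2 preincubated 0.5 h at room temperature with 10-point compound dilutions (top final 1, 0.1, 0.02 or 0.01 uM) in pH 7.5 phosphate buffer. FITC-Bak peptide (0.5 nM) and anti-6His Tb cryptate then added for 1 h. TR-FRET read; IC50 from four-parameter logistic fit.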

In experiment [6] the target is recombinant human Bcl-2-G101V protein (Homo sapiens (Human), UniProt P10415, G101V). In words: Bcl-2-G101V TR-FRET Assay. The class given is binding. The note with it: Bcl-2 G101V mutant, TR-FRET; read-out: Biochemical assay (IC50, nM) Bcl-2 G101V. Put shortly: as §1
Setting [7] is: Bcl-2 wild type, TR-FRET, read-out: Biochemical assay (IC50, nM) Bcl-2 WT.
Setting [8] is: Homo sapiens, RS4-11, RS4;11 cells.

Read-outs that look alike come from different tables or passages of the source.

With “2-((1H-pyrrolo[2,3-b]pyridin-5-yl)oxy)-N-((4-((((1r,4r)-4-bydroxy-4-methylcyclohexyl)methyl)amino)-3-nitrophenyl)sulfonyl)-4-(2-((R or S)-2-(2-isopropylphenyl)-4-(2-methoxyethyl)piperazin-1-yl)-7-azaspiro[3.5]nonan-7-yl)benzamide [Example 13b]”, in experiment [1], the “Ratio of Bcl-2 G101V/WT” value was 22.1. The IC50 was determined as 0.32 nM in experiment [2] (RS4;11 cells) and 2.81 nM in experiment [3]. In addition, in experiment [4] (ratio of IC50), the “Ratio of Bcl-2 D103Y/Bcl-2 WT” value came out at 12.
Consider `CC(C)c1ccccc1[C@H]1CN(C(C)C)CCN1C1CC2(CCN(c3ccc(C(=O)NS(=O)(=O)c4ccc(NC[C@H]5CC[C@](C)(O)CC5)c([N+](=O)[O-])c4)c(Oc4cnc5[nH]ccc5c4)c3)CC2)C1` (single isomer, unassigned) [Example 3a, 2-((1H-pyrrolo[2,3-b]pyridin-5-yl)oxy)-N-((4-((((1r,4r)-4-hydroxy-4-methylcyclohexyl)methyl)amino)-3-nitrophenyl)sulfonyl)-4-(2-((S or R)-4-isopropyl-2-(2-isopropylphenyl)piperazin-1-yl)-7-azaspiro[3.5]nonan-7-yl)benzamide], for which the IC50 stood at 0.034 nM in experiment [5] (setting [7]), 2.2 nM in experiment [6], 3.67 nM in experiment [2] (setting [8]) and 35.1 nM in experiment [3] (Homo sapiens). In experiment [1], the “Ratio of Bcl-2 G101V/WT” value was determined as 64.7.
For `CC(C)c1ccccc1C1CN(Cc2cnn(C)c2)CCN1C1CC2(CCN(c3ccc(C(=O)NS(=O)(=O)c4ccc(NC[C@H]5CC[C@](C)(O)CC5)c([N+](=O)[O-])c4)c(Oc4cnc5[nH]ccc5c4)c3)CC2)C1` (single isomer, unassigned) [Example 22a, 2-((1H-pyrrolo[2,3-b]pyridin-5-yl)oxy)-N-((4-((((1r,4r)-4-hydroxy-4-methylcyclohexyl)methyl)amino)-3-nitrophenyl)sulfonyl)-4-(2-((R or S)-2-(2-isopropylphenyl)-4-((1-methyl-1H-pyrazol-4-yl)methyl)piperazin-1-yl)-7-azaspiro [3.5]nonan-7-yl)benzamide], the IC50 in experiment [5] (setting [7]) came out at 0.0079 nM; in experiment [5] (wild type Bcl-2, unit inferred, read-out: Bcl-2 WT) it was 0.0079 nM; in experiment [6], 0.064 nM; in experiment [2] (setting [8]), 0.25 nM; in experiment [3] (Homo sapiens), 1.35 nM; in experiment [4] (TR-FRET, FITC labeled Bak peptide), 0.041 nM.
Consider `CC(C)c1ccccc1[C@@H]1CN(Cc2cccc3c2OCCO3)CCN1C1CC2(CCN(c3ccc(C(=O)NS(=O)(=O)c4ccc(NC[C@H]5CC[C@](C)(O)CC5)c([N+](=O)[O-])c4)c(Oc4cnc5[nH]ccc5c4)c3)CC2)C1` [Example 79b, 2-((1H-pyrrolo[2,3-b]pyridin-5-yl)oxy)-4-(2-(S-4-((2,3-dihydrobenzo [b][1,4]dioxin-5-yl)methyl)-2-(2-isopropylphenyl)piperazin-1-yl)-7-azaspiro[3.5]nonan-7-yl)-N-((4-((((1r,4r)-4-hydroxy-4-methylcyclohexyl)methyl)amino)-3-nitrophenyl)sulfonyl)benzamide], for which the IC50 was 0.33 nM in experiment [5] (setting [7]), 19 nM in experiment [6], 0.16 nM in experiment [2] (setting [8]) and 0.68 nM in experiment [3] (Homo sapiens).
With `COc1cc(CN2CCN(C3CC4(CCN(c5ccc(C(=O)NS(=O)(=O)c6ccc(NC[C@H]7CC[C@](C)(O)CC7)c([N+](=O)[O-])c6)c(Oc6cnc7[nH]cc(F)c7c6)c5)CC4)C3)[C@H](c3ccccc3C(C)C)C2)ccc1Cl` [Example 278, 4-(2-((R)-4-(4-chloro-3-methoxybenzyl)-2-(2-isopropylphenyl)piperazin-1-yl)-7-azaspiro[3.5]nonan-7-yl)-2-((3-fluoro-1H-pyrrolo[2,3-b]pyridin-5-yl)oxy)-N-((4-((((1r,4r)-4-hydroxy-4-methylcyclohexyl)methyl)amino)-3-nitrophenyl)sulfonyl) benzamide], the figures for the IC50 in experiment [2] (setting [8]) and in experiment [3] (Homo sapiens) were 0.15 nM and 0.46 nM, respectively.
